Data: patent publication US20070037193A1, “Modulation of peroxisome proliferator-activated receptors” (priority 2005, published 2007)

Assays:
endogenous PPAR = assay: Reporter gene assay of endogenous PPAR activity in differentiating 3T3-L1 cells; assay type: cell-based; conditions: 3T3-L1 cells induced to differentiate for two days
Procedure: (§1) The effect of prostaglandin on PPAR-gamma activity in adipocytes was investigated. After treatment with a medium that induces cell differentiation, 3T3-L1 cells were treated from day 2 to 4 during adipogenesis with 14 μM 15-keto PGE2, 13,14-dihydro-15-keto PGE2, 15-keto PGF2α, 13,14-dihydro-15-keto PGF2α, or 4.5 μM of BRL49653, a PPAR-gamma agonist. See Forman et al., Cell (1995) 83:803-812. At day 6, aggregates of lipid droplets were stained with oil-red O for observation. […] After being induced to differentiate for two days, the 3T3-L1 cells were transfected with a reporter gene.

PPAR-gamma = target: T1, PPAR-gamma (Homo sapiens, UniProt P37231); assay: GAL4-PPAR ligand-binding domain luciferase reporter in 3T3-L1 cells; assay type: cell-based
T1 construct: expressed in transfected cells; host or cells: 3T3-L1 cells
T1 sequence (P37231 238-503 limits assumed): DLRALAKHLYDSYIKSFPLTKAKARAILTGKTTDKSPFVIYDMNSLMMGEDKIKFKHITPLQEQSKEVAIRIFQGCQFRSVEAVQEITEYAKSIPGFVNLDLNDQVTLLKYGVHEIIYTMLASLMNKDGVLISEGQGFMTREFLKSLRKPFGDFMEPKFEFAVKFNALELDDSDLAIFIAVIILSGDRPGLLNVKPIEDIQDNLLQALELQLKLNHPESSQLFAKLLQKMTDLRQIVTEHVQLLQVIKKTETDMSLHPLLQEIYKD
Excerpt: A luciferase reporter gene was transfected to 3T3-L1 cells together with the ligand-binding domain of PPAR-alpha, PPAR-gamma or PPAR-delta fused to a yeast GAL4 DNA-binding domain.

PGR3/ZADH2 = assay: Substrate specificity of PGR3/ZADH2; assay type: biochemical; conditions: 15-keto PGE2 replaced with the test substrate
Procedure: (§2) Enzymatic activity was determined as follows. 10 μg of the recombinant mouse or human PGR3/ZADH2 protein was incubated at 37° C. in a reaction buffer containing 0.1IM Tris-HCl (pH7.4), 0.5 mM NADPH, and 0.57 mM 15-keto PGE2. The reaction was conducted at 37° C. in the dark for 10 minutes and terminated by adding 700 μl of a buffer which contained 50 mM potassium hydrogen phthalate, pH 3.0, and 1% Tween 20. 200 μl of a color development reagent, which contained 790 μM indonitrotetrazolium chloride, 60 μM phenazene methosulfate, and 1% Tween 20, was added to oxidize any unreacted NADPH. Absorbance at 490 nm was measured by an ELISA plate reader. A standard curve was generated using reaction buffers containing serially diluted amounts of NADPH.
Substrate specificity of PGR3/ZADH2 was determined using the just-described procedure, except that 15-keto PGE2 was replaced with each of six prostaglandin substrates, each of three downstream metabolites, or leukotriene B4.

Mouse PGR3/ZADH2 = target: T2, Mouse PGR3/ZADH2 (Mus musculus, UniProt Q8BGC4); assay: PGR3/ZADH2 enzyme inhibition assay (reduction of 15-keto-PGE2, NADPH consumption); assay type: biochemical; conditions: 50 μM compound, No Inhibitor = 100
T2 construct: GST; made in house; host or cells: E. coli
T2 sequence (Q8BGC4 1-377): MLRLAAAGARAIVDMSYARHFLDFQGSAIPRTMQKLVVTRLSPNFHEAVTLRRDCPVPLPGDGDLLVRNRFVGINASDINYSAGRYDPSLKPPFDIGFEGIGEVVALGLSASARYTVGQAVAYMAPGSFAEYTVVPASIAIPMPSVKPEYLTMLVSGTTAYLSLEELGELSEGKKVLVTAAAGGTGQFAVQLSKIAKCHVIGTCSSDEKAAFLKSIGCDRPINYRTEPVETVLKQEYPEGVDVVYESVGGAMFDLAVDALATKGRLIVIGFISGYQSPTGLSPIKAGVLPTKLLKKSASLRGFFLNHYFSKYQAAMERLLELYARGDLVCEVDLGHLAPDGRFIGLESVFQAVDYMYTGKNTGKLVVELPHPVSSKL
Procedure: as §2
(§3) Compounds 1-49 were tested for their inhibitory effects on PGR3/ZADH2 activity. These compounds are either commercially available (e.g., from Sigma-Aldrich, St. Louis, Mo.) or can be prepared from methods known in the art. The inhibition assay was performed following the procedure described above. Different concentrations of PGR3/ZADH2 inhibitors were added to the reaction mixture and incubated for 2 hours at 37° C.
(§4) More specifically, 50 μM of compounds 8, 12, 13, and 27, and 25 μM of tri-fluorobenzyl-2-hydroxycinnamate (compound 22) were added to the PGR3/ZADH2 enzyme reaction system and the ability of enzyme to reduce 15-keto-PGE2 were measured.

Human PGR3/ZADH2 = target: T3, Human PGR3/ZADH2 (Homo sapiens, UniProt Q8N4Q0); assay: as above; assay type: biochemical; conditions: 50 μM compound, No Inhibitor = 100
T3 construct: GST; made in house; host or cells: E. coli
T3 sequence (Q8N4Q0 1-377): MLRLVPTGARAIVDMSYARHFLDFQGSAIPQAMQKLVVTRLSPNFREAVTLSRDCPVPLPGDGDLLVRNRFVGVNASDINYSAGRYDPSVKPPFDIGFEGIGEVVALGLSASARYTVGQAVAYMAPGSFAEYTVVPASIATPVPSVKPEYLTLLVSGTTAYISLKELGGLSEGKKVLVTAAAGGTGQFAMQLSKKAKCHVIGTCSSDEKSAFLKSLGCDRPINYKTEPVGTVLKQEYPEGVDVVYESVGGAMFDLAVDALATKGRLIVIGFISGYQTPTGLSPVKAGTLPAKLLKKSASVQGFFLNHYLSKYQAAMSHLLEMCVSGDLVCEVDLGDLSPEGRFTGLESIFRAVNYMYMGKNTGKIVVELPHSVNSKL
Procedure: as §2, §3, §4

PPAR-gamma target genes = assay: Protein expression of adipogenesis-specific PPAR-gamma target genes in 3T3-L1 cells; assay type: cell-based
Excerpt: Also examined was the ability of 15-keto PGE2 to induce protein expression of adipogenesis-specific, PPAR-gamma target genes, i.e., IRS-1 and -2.

3T3-L1 cells = assay: Adipogenesis in 3T3-L1 cells, oil-red O staining of lipid droplets; assay type: cell-based; conditions: 14 μM from day 2 to 4; staining at day 6
Procedure: as §1

CCCCCC(=O)/C=C/[C@@H]1[C@@H](C/C=C\CCCC(=O)O)[C@@H](O)C[C@H]1O [15-keto PGF2α]
endogenous PPAR activity (reporter gene) (endogenous PPAR): enhanced endogenous PPAR activity significantly | activation of PPAR-gamma (GAL4 fusion, luciferase reporter) (PPAR-gamma): activated PPAR-gamma | specific activity as substrate of PGR3/ZADH2 (PGR3/ZADH2): reacted specifically

CCCCCC(=O)/C=C/[C@@H]1[C@@H](CCCCCCC(=O)O)[C@@H](O)C[C@H]1O [15-keto PGF1αL, 15-keto PGF1α]
specific activity as substrate of PGR3/ZADH2 (PGR3/ZADH2): reacted specifically

O=c1c(O)c(-c2ccccc2)oc2cc(O)cc(O)c12 [Compound 8]
activity at 50 µM (Mouse PGR3/ZADH2): 11.4% | activity at 50 µM (Human PGR3/ZADH2): 25.6%

CCCCC[C@H](O)/C=C/[C@@H]1[C@@H](C/C=C\CCCC(=O)O)[C@@H](O)C[C@@H]1O [Compound 11b-PGF2α, 11b-PGF2α]
specific activity as substrate of PGR3/ZADH2 (PGR3/ZADH2): no specific activity was detected

CCCCCC(=O)CC[C@@H]1[C@@H](C/C=C\CCCC(=O)O)[C@@H](O)C[C@H]1O [13,14-dihydro-15-keto PGF2α]
endogenous PPAR activity (reporter gene) (endogenous PPAR): failed to increase PPAR activity | specific activity as substrate of PGR3/ZADH2 (PGR3/ZADH2): no specific activity was detected

CCCCC[C@H](O)/C=C/[C@@H]1[C@@H](C/C=C\CCCC(=O)O)[C@H](O)C[C@H]1O [PGF2β]
specific activity as substrate of PGR3/ZADH2 (PGR3/ZADH2): no specific activity was detected

CCCCC/C=C\C[C@@H](O)/C=C/C=C/C=C\[C@@H](O)CCCC(=O)O [leukotriene B4]
specific activity as substrate of PGR3/ZADH2 (PGR3/ZADH2): no specific activity was detected

CCCCCC(=O)/C=C/[C@H]1[C@H](O)CC(=O)[C@@H]1CCCCCCC(=O)O [15-keto PGE1]
specific activity as substrate of PGR3/ZADH2 (PGR3/ZADH2): reacted specifically

CCCCCC(=O)CCC1C(=O)CC(O)C1C/C=C\CCCC(=O)O (centres unmarked) [13,14-dihydro-15-keto PGD2]
specific activity as substrate of PGR3/ZADH2 (PGR3/ZADH2): no specific activity was detected

CCCCC[C@H](O)/C=C/[C@@H]1[C@@H](CC(=O)CCCCC(=O)O)[C@@H](O)C[C@H]1O [6-keto PGF1α]
specific activity as substrate of PGR3/ZADH2 (PGR3/ZADH2): no specific activity was detected

COc1cc(/C=C/C(=O)c2cc(Br)ccc2O)cc(OC)c1OC [Compound 13]
activity at 50 µM (Mouse PGR3/ZADH2): 37.1% | activity at 50 µM (Human PGR3/ZADH2): 51.1%

CCCCCC(=O)/C=C/[C@H]1[C@H](O)CC(=O)[C@@H]1C/C=C\CCCC(=O)O [15-keto PGE2]
endogenous PPAR activity (reporter gene) (endogenous PPAR): enhanced endogenous PPAR activity significantly | activation of PPAR-gamma (GAL4 fusion, luciferase reporter) (PPAR-gamma): activated PPAR-gamma | amount of IRS-1 protein (PPAR-gamma target genes): did not increase the amount of IRS-1 protein | PPAR-gamma1 and PPAR-gamma2 protein expression (PPAR-gamma target genes; added with MIX, insulin and dexamethasone): significantly enhanced PPAR-gammal and PPAR-gamma2 expression | expression of aP2 (PPAR-gamma target genes; even in the absence of MIX): strongly induced expression of aP2 | IRS-2 expression (PPAR-gamma target genes; in the presence of insulin and dexamethasone): enhanced the expression to a level similar to MIX | adipogenesis (lipid droplets, oil-red O) (3T3-L1 cells): effectively enhanced adipogenesis at a level similar to BRL49653

O=c1c(O)c(-c2ccc(O)c(O)c2)oc2ccccc12 [Compound 27]
activity at 50 µM (Mouse PGR3/ZADH2): 87.4% | activity at 50 µM (Human PGR3/ZADH2): 91.1%

COc1cc(/C=C/C(=O)c2ccccc2O)cc(OC)c1OC [Compound 12]
activity at 50 µM (Mouse PGR3/ZADH2): 6.4% | activity at 50 µM (Human PGR3/ZADH2): 27.5%

CCCCCC(=O)CC[C@H]1[C@H](O)CC(=O)[C@@H]1C/C=C\CCCC(=O)O [13,14-dihydro-15-keto PGE2]
endogenous PPAR activity (reporter gene) (endogenous PPAR): failed to increase PPAR activity | specific activity as substrate of PGR3/ZADH2 (PGR3/ZADH2): no specific activity was detected
